Our source for the relative viability values is the supplement of paper PMC10307832.

One assay relates to LXF-289. As to the kind of experiment: relative viability (nuclei count vs DMSO), 5 days (fraction); higher = more cells survive. As to conditions: first compound 0.2 µM. The gist of the method: (§1)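 Dosing by pin tool came one day after lung cancer cell lines were seeded in 1536-well plates, using either one drug or a fixed anchor-drug dose plus five library-drug doses (not always all listed) in √10 steps. After 5 days, nuclei were counted on 4× images. Relative viability is treated-well nuclei count divided by vehicle-well nuclei count, and values are medians of duplicate plates.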
On to `COCC1(CO)C(=O)C2CCN1CC2` (stereo not drawn) [PRIMA-1MET] + O=C(c1cc(Cc2n[nH]c(=O)c3ccccc23)ccc1F)N1CCN(C(=O)C2CC2)CC1 [Olaparib] (partner 8 µM), for which the relative viability was 1.14.

Staying with this assay, now noted: first compound 0.6325 µM.
`COCC1(CO)C(=O)C2CCN1CC2` (stereo not drawn) [PRIMA-1MET] + N=C(N)NC(=N)NCCc1ccccc1 [Phenformin] (partner 250 µM) had a relative viability of 0.482.

In turn, `COCC1(CO)C(=O)C2CCN1CC2` (stereo not drawn) [PRIMA-1MET] + Nc1nc2[nH]cc(CCc3ccc(C(=O)N[C@@H](CCC(=O)O)C(=O)O)cc3)c2c(=O)[nH]1 [Pemetrexed] (partner 0.2 µM) yielded a relative viability of 0.891.

`COCC1(CO)C(=O)C2CCN1CC2` (stereo not drawn) [PRIMA-1MET] + CC(=O)Nc1cccc(-n2c(=O)n(C3CC3)c(=O)c3c(Nc4ccc(I)cc4F)n(C)c(=O)c(C)c32)c1 [Trametinib] (partner 0.02 µM): the relative viability stood at 0.591.

As to `COCC1(CO)C(=O)C2CCN1CC2` (stereo not drawn) [PRIMA-1MET] + Nc1ncn([C@H]2C[C@H](O)[C@@H](CO)O2)c(=O)n1 [Decitabine] (partner 2 µM), the relative viability turned out to be 0.306.

Molecule `COCC1(CO)C(=O)C2CCN1CC2` (stereo not drawn) [PRIMA-1MET] + O=C(c1cc(Cc2n[nH]c(=O)c3ccccc23)ccc1F)N1CCN(C(=O)C2CC2)CC1 [Olaparib] (partner 8 µM) came in with a relative viability of 1.03.

Staying with this assay, now noted: first compound 2 µM.
Molecule `COCC1(CO)C(=O)C2CCN1CC2` (stereo not drawn) [PRIMA-1MET] + N=C(N)NC(=N)NCCc1ccccc1 [Phenformin] (partner 250 µM) came in with a relative viability of 0.428.

`COCC1(CO)C(=O)C2CCN1CC2` (stereo not drawn) [PRIMA-1MET] + Nc1nc2[nH]cc(CCc3ccc(C(=O)N[C@@H](CCC(=O)O)C(=O)O)cc3)c2c(=O)[nH]1 [Pemetrexed] (partner 0.2 µM): the relative viability was determined as 1.09.

`COCC1(CO)C(=O)C2CCN1CC2` (stereo not drawn) [PRIMA-1MET] + CC(=O)Nc1cccc(-n2c(=O)n(C3CC3)c(=O)c3c(Nc4ccc(I)cc4F)n(C)c(=O)c(C)c32)c1 [Trametinib] (partner 0.02 µM) displayed a relative viability of 0.67.

As for `COCC1(CO)C(=O)C2CCN1CC2` (stereo not drawn) [PRIMA-1MET] + Nc1ncn([C@H]2C[C@H](O)[C@@H](CO)O2)c(=O)n1 [Decitabine] (partner 2 µM), the relative viability was found to be 0.349.

`COCC1(CO)C(=O)C2CCN1CC2` (stereo not drawn) [PRIMA-1MET] + O=C(c1cc(Cc2n[nH]c(=O)c3ccccc23)ccc1F)N1CCN(C(=O)C2CC2)CC1 [Olaparib] (partner 8 µM) returned a relative viability of 1.06.

Still in this assay, the particulars now being: first compound 6.325 µM.
Molecule `COCC1(CO)C(=O)C2CCN1CC2` (stereo not drawn) [PRIMA-1MET] + N=C(N)NC(=N)NCCc1ccccc1 [Phenformin] (partner 250 µM) returned a relative viability of 0.513.

Turning to `COCC1(CO)C(=O)C2CCN1CC2` (stereo not drawn) [PRIMA-1MET] + Nc1nc2[nH]cc(CCc3ccc(C(=O)N[C@@H](CCC(=O)O)C(=O)O)cc3)c2c(=O)[nH]1 [Pemetrexed] (partner 0.2 µM), the relative viability worked out at 0.954.

`COCC1(CO)C(=O)C2CCN1CC2` (stereo not drawn) [PRIMA-1MET] + CC(=O)Nc1cccc(-n2c(=O)n(C3CC3)c(=O)c3c(Nc4ccc(I)cc4F)n(C)c(=O)c(C)c32)c1 [Trametinib] (partner 0.02 µM) displayed a relative viability of 0.651.

With `COCC1(CO)C(=O)C2CCN1CC2` (stereo not drawn) [PRIMA-1MET] + Nc1ncn([C@H]2C[C@H](O)[C@@H](CO)O2)c(=O)n1 [Decitabine] (partner 2 µM), the relative viability turned out to be 0.373.

In turn, `COCC1(CO)C(=O)C2CCN1CC2` (stereo not drawn) [PRIMA-1MET] + O=C(c1cc(Cc2n[nH]c(=O)c3ccccc23)ccc1F)N1CCN(C(=O)C2CC2)CC1 [Olaparib] (partner 8 µM) had a relative viability of 1.06.

Staying with this assay, now noted: first compound 20 µM.
The molecule `COCC1(CO)C(=O)C2CCN1CC2` (stereo not drawn) [PRIMA-1MET] + N=C(N)NC(=N)NCCc1ccccc1 [Phenformin] (partner 250 µM) displayed a relative viability of 0.456.

In turn, `COCC1(CO)C(=O)C2CCN1CC2` (stereo not drawn) [PRIMA-1MET] + Nc1nc2[nH]cc(CCc3ccc(C(=O)N[C@@H](CCC(=O)O)C(=O)O)cc3)c2c(=O)[nH]1 [Pemetrexed] (partner 0.2 µM) gave a relative viability of 0.875.

The molecule `COCC1(CO)C(=O)C2CCN1CC2` (stereo not drawn) [PRIMA-1MET] + CC(=O)Nc1cccc(-n2c(=O)n(C3CC3)c(=O)c3c(Nc4ccc(I)cc4F)n(C)c(=O)c(C)c32)c1 [Trametinib] (partner 0.02 µM) yielded a relative viability of 0.659.

Consider `COCC1(CO)C(=O)C2CCN1CC2` (stereo not drawn) [PRIMA-1MET] + Nc1ncn([C@H]2C[C@H](O)[C@@H](CO)O2)c(=O)n1 [Decitabine] (partner 2 µM), for which the relative viability was 0.372.

Consider `COCC1(CO)C(=O)C2CCN1CC2` (stereo not drawn) [PRIMA-1MET] + O=C(c1cc(Cc2n[nH]c(=O)c3ccccc23)ccc1F)N1CCN(C(=O)C2CC2)CC1 [Olaparib] (partner 8 µM), for which the relative viability was found to be 0.999.

A further assay concerns BEN. The assay is described as above. As to conditions: first compound 0.2 µM. A digest of the protocol:
as §1
`COCC1(CO)C(=O)C2CCN1CC2` (stereo not drawn) [PRIMA-1MET] + N=C(N)NC(=N)NCCc1ccccc1 [Phenformin] (partner 250 µM) yielded a relative viability of 0.268.

Turning to `COCC1(CO)C(=O)C2CCN1CC2` (stereo not drawn) [PRIMA-1MET] + Nc1nc2[nH]cc(CCc3ccc(C(=O)N[C@@H](CCC(=O)O)C(=O)O)cc3)c2c(=O)[nH]1 [Pemetrexed] (partner 0.2 µM), the relative viability was 0.898.

Take `COCC1(CO)C(=O)C2CCN1CC2` (stereo not drawn) [PRIMA-1MET] + CC(=O)Nc1cccc(-n2c(=O)n(C3CC3)c(=O)c3c(Nc4ccc(I)cc4F)n(C)c(=O)c(C)c32)c1 [Trametinib] (partner 0.02 µM): the relative viability was determined as 1.12.

Regarding `COCC1(CO)C(=O)C2CCN1CC2` (stereo not drawn) [PRIMA-1MET] + Nc1ncn([C@H]2C[C@H](O)[C@@H](CO)O2)c(=O)n1 [Decitabine] (partner 2 µM), the relative viability was 0.747.

As to `COCC1(CO)C(=O)C2CCN1CC2` (stereo not drawn) [PRIMA-1MET] + O=C(c1cc(Cc2n[nH]c(=O)c3ccccc23)ccc1F)N1CCN(C(=O)C2CC2)CC1 [Olaparib] (partner 8 µM), the relative viability was determined as 1.19.

Staying with this assay, now noted: first compound 0.6325 µM.
For the molecule `COCC1(CO)C(=O)C2CCN1CC2` (stereo not drawn) [PRIMA-1MET] + N=C(N)NC(=N)NCCc1ccccc1 [Phenformin] (partner 250 µM), the relative viability was found to be 0.275.

With `COCC1(CO)C(=O)C2CCN1CC2` (stereo not drawn) [PRIMA-1MET] + Nc1nc2[nH]cc(CCc3ccc(C(=O)N[C@@H](CCC(=O)O)C(=O)O)cc3)c2c(=O)[nH]1 [Pemetrexed] (partner 0.2 µM), the relative viability turned out to be 0.421.

Turning to `COCC1(CO)C(=O)C2CCN1CC2` (stereo not drawn) [PRIMA-1MET] + CC(=O)Nc1cccc(-n2c(=O)n(C3CC3)c(=O)c3c(Nc4ccc(I)cc4F)n(C)c(=O)c(C)c32)c1 [Trametinib] (partner 0.02 µM), the relative viability was determined as 0.926.

Regarding `COCC1(CO)C(=O)C2CCN1CC2` (stereo not drawn) [PRIMA-1MET] + Nc1ncn([C@H]2C[C@H](O)[C@@H](CO)O2)c(=O)n1 [Decitabine] (partner 2 µM), the relative viability was 0.473.

For `COCC1(CO)C(=O)C2CCN1CC2` (stereo not drawn) [PRIMA-1MET] + O=C(c1cc(Cc2n[nH]c(=O)c3ccccc23)ccc1F)N1CCN(C(=O)C2CC2)CC1 [Olaparib] (partner 8 µM), the relative viability is 1.11.

Staying with this assay, now noted: first compound 6.325 µM.
In turn, `COCC1(CO)C(=O)C2CCN1CC2` (stereo not drawn) [PRIMA-1MET] + N=C(N)NC(=N)NCCc1ccccc1 [Phenformin] (partner 250 µM) returned a relative viability of 0.217.

Take `COCC1(CO)C(=O)C2CCN1CC2` (stereo not drawn) [PRIMA-1MET] + Nc1nc2[nH]cc(CCc3ccc(C(=O)N[C@@H](CCC(=O)O)C(=O)O)cc3)c2c(=O)[nH]1 [Pemetrexed] (partner 0.2 µM): the relative viability came out at 0.801.
